Active and inactive are the calls of the source. No cut-off for these calls is given here.

Consider three compounds from ChEMBL document CHEMBL1145519, “Exploitation of structural and regulatory diversity in glutamate racemases” (Nature, 2007).

For one assay, the system named is Helicobacter pylori. The assay is described as follows: Increase in UDP-MurNAc-Ala level in Helicobacter pylori. Type of assay: functional, organism-based.

Description for Enterococcus faecium: Activity of Enterococcus faecium MurI
Description for Escherichia coli: Activity of Escherichia coli MurI
Description for Staphylococcus aureus: Activity of Staphylococcus aureus MurI

In the case of `CC(C)Cn1c(=O)n(C)c(=O)c2c(-c3ccncc3)n(Cc3cccc4ccccc34)nc21`, the result in the assay with Helicobacter pylori was Active.

Consider `N[C@H](CCC(=O)O)C(=O)O`, for which the values for the Michaelis constant (Km) with Enterococcus faecium, in the assay on Staphylococcus aureus and with Escherichia coli were 240 µM, 140 µM and 2100 µM, respectively. For the same compound, the values for the kcat with Staphylococcus aureus and in the assay with Escherichia coli were 0.567 s⁻¹ and 43.3 s⁻¹, respectively.

Consider `N[C@@H](CCC(=O)O)C(=O)O`, for which the Michaelis constant (Km) (as a rule, the substrate concentration at which the rate is half of its maximum) in the assay with Enterococcus faecium was 1100 µM; with Staphylococcus aureus it was 4600 µM; with Escherichia coli, 1200 µM. The kcat (as a rule, the maximal rate divided by the concentration of active sites) with Staphylococcus aureus amounted to 8.5 s⁻¹; in the assay on Escherichia coli, 12.2 s⁻¹.
